Measurements from ChEMBL document CHEMBL1165933, “Diosgenin, a plant-derived sapogenin, enhances regulatory T-cell immunity in the intestine of mice with food allergy” (J Nat Prod, 2010).
Active and inactive are the calls of the source. The rule behind the calls is not given here.

What was measured:
Assay type in all cases: functional, organism-based
[1] = system: Mus musculus; assay: Antiallergic effect in ovalbumin-sensitized and repeatedly challenged BALB/c mouse food allergy model assessed as inhibition of duodenal GATA3 expression at 200 mg/kg, po by immunohistochemistry; set-up: dose 200 mg/kg
[2] = system: Mus musculus; assay: Enhancement in regulatory T-cell immunity in intestine of ovalbumin-sensitized and repeatedly challenged BALB/c mouse food allergy model assessed as increase in Foxp3+ and IL10+ cells at 100 mg/kg, po by RT-PCR; set-up: dose 100 mg/kg
[3] = system: Mus musculus; assay: Enhancement in regulatory T-cell immunity in intestine of ovalbumin-sensitized and repeatedly challenged BALB/c mouse food allergy model assessed as increase in Foxp3+ and IL10+ cells at 100 mg/kg, po by immunohistochemistry; set-up: dose 100 mg/kg
[4] = system: Mus musculus; assay: Effect on T-cell infiltration in ovalbumin-sensitized and repeatedly challenged BALB/c mouse food allergy model assessed as CD3+ cells at 100 mg/kg, po by immunohistochemistry; set-up: dose 100 mg/kg
[5] = system: Mus musculus; assay: Effect on TGFbeta+ cells in ovalbumin-sensitized and repeatedly challenged BALB/c mouse food allergy model at 100 mg/kg, po by immunohistochemistry; set-up: dose 100 mg/kg
[6] = system: Mus musculus; assay: Antiallergic effect in ovalbumin-sensitized and repeatedly challenged BALB/c mouse food allergy model assessed as attenuation of duodenal interleukin-4 expression at 200 mg/kg, po by immunohistochemistry; set-up: dose 200 mg/kg
[7] = system: Mus musculus; assay: Enhancement in regulatory T-cell immunity in intestine of ovalbumin-sensitized and repeatedly challenged BALB/c mouse food allergy model assessed as increase in Foxp3+ and IL10+ cells at 200 mg/kg, po by RT-PCR; set-up: dose 200 mg/kg
[8] = system: Mus musculus; assay: Effect on T-cell infiltration in ovalbumin-sensitized and repeatedly challenged BALB/c mouse food allergy model assessed as CD3+ cells at 200 mg/kg, po by immunohistochemistry; set-up: dose 200 mg/kg
[9] = system: Mus musculus; assay: Enhancement in regulatory T-cell immunity in intestine of ovalbumin-sensitized and repeatedly challenged BALB/c mouse food allergy model assessed as increase in Foxp3+ and IL10+ cells at 200 mg/kg, po by immunohistochemistry; set-up: dose 200 mg/kg
[10] = system: Mus musculus; assay: Effect on TGFbeta+ cells in ovalbumin-sensitized and repeatedly challenged BALB/c mouse food allergy model at 200 mg/kg, po by immunohistochemistry; set-up: dose 200 mg/kg
[11] = system: Mus musculus; assay: Antiallergic effect in ovalbumin-sensitized and repeatedly challenged BALB/c mouse food allergy model assessed as attenuation of duodenal interleukin-4 expression at 100 mg/kg, po by immunohistochemistry; set-up: dose 100 mg/kg
[12] = system: Mus musculus; assay: Antiallergic effect in ovalbumin-sensitized and repeatedly challenged BALB/c mouse food allergy model assessed as inhibition of duodenal GATA3 expression at 100 mg/kg, po by immunohistochemistry; set-up: dose 100 mg/kg

## C[C@@H]1CC[C@@]2(OC1)O[C@H]1C[C@H]3[C@@H]4CC=C5C[C@@H](O)CC[C@]5(C)[C@H]4CC[C@]3(C)[C@H]1[C@@H]2C
[1]
  inhibition: Active
[2]
  Activity: Active
[3]
  Activity: Active
[4]
  Activity: inactive
[5]
  Activity: inactive
[6]
  inhibition: Active
[7]
  Activity: Active
[8]
  Activity: inactive
[9]
  Activity: Active
[10]
  Activity: inactive
[11]
  inhibition: Active
[12]
  inhibition: Active
